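Where inhibition never reached the appropriate level, the endpoint shown equals the highest concentration tested. Otherwise, values were interpolated linearly from a five-concentration, 48-hour dose response in 96-well plates. The concentration for 50% growth inhibition is given as GI50. Definition used: TGI = concentration required for complete inhibition of growth.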
Assays:
Assay in all cases: growth of human tumour cells (NCI), 48 h
[1] = test system: 786-0 renal
[2] = test system: HCT-116 colon
[3] = test system: HCT-15 colon
[4] = test system: KM12 colon
[5] = test system: LOX IMVI melanoma
[6] = test system: M14 melanoma
[7] = test system: NCI-H23 lung
[8] = test system: OVCAR-8 ovarian
[9] = test system: SN12C renal
[10] = test system: SW-620 colon

Structure (SMILES)	GI50 [1] [µM]	TGI [1] [µM]	GI50 [2] [µM]	TGI [2] [µM]	GI50 [3] [µM]	TGI [3] [µM]	GI50 [4] [µM]	TGI [4] [µM]	GI50 [5] [µM]	TGI [5] [µM]	GI50 [6] [µM]	TGI [6] [µM]	GI50 [7] [µM]	TGI [7] [µM]	GI50 [8] [µM]	TGI [8] [µM]	GI50 [9] [µM]	TGI [9] [µM]	GI50 [10] [µM]	TGI [10] [µM]
CCOC(=S)SCN1C(=O)c2ccccc2S1(=O)=O	20.9	47.9	13.6	26.5	19.2	36.1	35	> 100	17.1	31.9	16.4	33.5	12.6	27.8	20.8	> 100	21	46.6	4.96	19.7
C=CCCC(=O)N1C=CC(=O)[C@H](O)[C@@H]1/C=C/c1ccccc1	9.84	> 32.5	6.24	> 32.5	2.39	> 32.5	16	> 32.5	6.28	> 32.5	5.17	16.8	23.6	> 32.5	16	> 32.5	12.7	> 32.5	12.8	> 32.5
Nc1c(C(=O)Nc2cccc(Br)c2)sc2nc3c(cc12)C(O)CCC3 (stereo not given)	0.645	36.1	0.483	> 51.6	0.35	> 100	0.399	> 51	0.726	> 85.1	0.36	> 100	0.761	> 100	0.77	37.6	0.636	> 100	0.4	> 82
O=C(Nc1cc(-c2cccnc2)nc(NCCCN2CCOCC2)n1)c1cc(Br)cc(C(F)(F)F)c1	1.55	3.17	2.09	4.81	1.92	5.28	3.62	13.6	1.62	3.06	1.67	3.32	3.55	15	2.98	8.59	7.74	21.8	2.25	5.48
OC(COc1cccc2ccccc12)CN1CCN(c2ccccc2Cl)CC1 (stereo not given)	15.6	30.4	10.8	24.5	12.8	28.6	11.8	25.9	14.2	30.2	14.3	29.4	13.3	29.8	16.6	32.2	12.5	25.4	10.9	27.9
CCOC(=O)Cc1csc(NC(=O)COC(=O)c2ccc(OC)cc2)n1	35.7	> 57.6	> 91.9	> 100	> 100	> 100	> 83.6	> 100	11.1	> 37.5	> 100	> 100	29.8	> 100	47.5	> 73.2	> 100	> 100	> 96.1	> 100
CC1(C)[C@@H](OC(N)=O)C=C[C@]2(C=O)[C@H]3CC[C@]4(C)[C@@H](c5ccc(=O)oc5)[C@@H](Cl)C[C@]4(O)C3=CC[C@@H]12	0.00478	0.0106	0.00409	0.00818	0.00555	0.0129	0.00743	0.0238	0.0046	0.00885	0.00544	0.0124	0.00298	0.0102	0.00517	0.0123	0.00293	0.0136	0.00561	0.013
O=C(NCCCCOCC#Cc1ccccc1C#CCS(=O)(=O)c1ccccc1)c1cc2ccccc2[nH]1	12.8	34.8	9.63	26.6	7.21	15.7	17.5	> 50	1.58	4.8	12.1	36.3	7.25	16	11.4	48.9	10	24.9	11.5	> 45.5
Cc1ccc(S(=O)OC23CC4CC(CC(C4)C2)C3)cc1 (stereo not given)		> 100		> 100		> 100		> 100		> 100		> 100		> 100		> 100		> 100		> 100
C[n+]1c(N)n(C(=O)OCc2ccccc2)c(=O)c2c1ncn2C(=O)OCc1ccccc1		> 100		> 100		> 100		> 100		> 100		> 100		> 100		> 100		> 100		> 100
N#C/C(=C\c1ccccc1Br)C(=O)c1ccccc1		30.5		> 66.8		> 47.2		> 100		28.3		> 68.1		> 62.2		> 38.6		> 76.6		> 45.7
CC[C@H](NC(=O)[C@H](CS(=O)(=O)CC1CC1)N[C@@H](c1ccc(F)cc1)C(F)(F)F)C(=O)C(=O)NC1CC1	> 100	> 100	> 100	> 100	> 100	> 100	> 100	> 100	> 100	> 100	> 100	> 100	> 100	> 100	> 100	> 100	> 100	> 100	> 100	> 100
Cc1c(C(=O)O[C@H]2[C@@H]3[C@H](C)CC[C@H]3[C@]3(C)O[C@@]2(C2CCCCC2)C[C@H]3OC(=O)CO)ccc2ccccc12	6.52	13.1	7.57	14.5	7.86	15.2	8.35	17.4	7.45	14.2	7.92	16.7	8.29	17.7	6.64	13.8	0.157	8.36	8.01	16.3

Reference: PubChem BioAssay (NCI)
